# Measured values from publication PMC5654968 (NPJ Systems Biology and Applications, 2017).
# Where two headings read alike, the source gives them in different places.
# What was measured:
# [1] = Common metabolites in rat plasma by GC-MS/MS after polyI:C and/or maoto; assay type: in vivo
# Description: Distilled water and saline were administered as vehicle to rats in each control group. […] Plasma cytokine levels were measured by ELISA or multiplex immunoassay; common metabolites and lipid mediators were analyzed by GC-MS/MS and LC-MS/MS, respectively.
# 1 The concentrations of TNF-α and IL-6 in plasma samples were evaluated by
# 2 ELISA (R&D Systems, Minneapolis, MN, USA). Multiplex immunoassays
# 3 (Milliplex, Merck KGaA, Darmstadt, Germany) were performed to quantify the
# 4 concentrations of IL-1β, IL-10 and INF-γ. Assays were performed according to
# 5 the manufacturer’s protocol.
# If any outliers in the data set were determined to
# 10 be due to artifacts, they were excluded from the analysis. Data are presented as
# 11 mean ± SEM. Statistical significance of the data was determined by Welch’s
# 12 t-test with Bonferroni correction. The significance level in each statistical
# 13 analysis was set at P<0.05.
# 14 Analysis of metabolites by GC-MS/MS
# 15 Plasma samples obtained at 1, 2, 6 and 20 h after treatment were used for
# 16 analysis. To extract low molecular weight metabolites for GC-MS/MS analysis, […]
# [2] = Plasma PK of major maoto compounds by LC-MS/MS after oral administration of maoto; assay type: in vivo, rat; details: for Tmax: read-out: Tmax
# Description: 1 (7:00-19:00). Rats were maintained and used for the experiments in accordance
# 2 with the Guidelines for the Care and Use of Laboratory Animals of Tsumura &
# 3 CO. All experimental procedures were carried out upon approval from the
# 4 Laboratory Animal Committee of Tsumura & CO.
# 8 administered to 16-h fasted rats (n=3). […]
# 14 and 4 g/10mL/kg) were determined by LC-MS/MS. Based on a literature search,
# 16 amygdalin, prunasin, scopoletin, l-ephedrine, d-pseudoephedrine,
# 1 Plasma PK data were analyzed by noncompartmental modeling using
# 2 Phoenix WinNonlin (version 6.3, Certara L.P., St. Louis, MO, USA) to determine
# 3 various PK constants including Cmax, tmax, t1/2, and AUC0–last. The t1/2 was divided
# 4 by loge2/ke, where ke is the rate constant of terminal elimination (at least three
# 5 data points on the descending linear limb). […]
# [3] = PM/P (polyI:C+maoto vs polyI:C), 1h
# [4] = PM/P (polyI:C+maoto vs polyI:C), 2h
# [5] = PM/P (polyI:C+maoto vs polyI:C), 6h
# [6] = PM/P (polyI:C+maoto vs polyI:C), 20h
# [7] = Sprague-Dawley, rat, plasma, po, 2 g/kg
# [8] = Sprague-Dawley, rat, plasma, po, 2 g/kg, read-out: Cmax
# [9] = Sprague-Dawley, rat, plasma, po, 4 g/kg
# [10] = Sprague-Dawley, rat, plasma, po, 4 g/kg, read-out: Cmax
# [11] = Sprague-Dawley, rat, plasma, po, 1 g/kg
# [12] = Sprague-Dawley, rat, plasma, po, 1 g/kg, read-out: Cmax
SMILES,"log2FC of plasma level ([1]; M/C (maoto vs control), 1h)","log2FC of plasma level ([1]; M/C (maoto vs control), 2h)","log2FC of plasma level ([1]; M/C (maoto vs control), 6h)","log2FC of plasma level ([1]; M/C (maoto vs control), 20h)","log2FC of plasma level ([1]; P/C (polyI:C vs control), 1h)","log2FC of plasma level ([1]; P/C (polyI:C vs control), 2h)","log2FC of plasma level ([1]; P/C (polyI:C vs control), 6h)","log2FC of plasma level ([1]; P/C (polyI:C vs control), 20h)","log2FC of plasma level [1, 3]","log2FC of plasma level [1, 4]","log2FC of plasma level [1, 5]","log2FC of plasma level [1, 6]","AUC(0-t) [2, 7]","Cmax [2, 8]","Tmax [2, 7]","AUC(0-t) [2, 9]","Cmax [2, 10]","Tmax [2, 9]","AUC(0-t) [2, 11]","Cmax [2, 12]",other results
NCC(=O)O [Glycine],-0.06,-0.10,-0.14,-0.06,-0.03,-0.01,-0.02,-0.30,-0.12,-0.42,-0.02,0.0873,,,,,,,,,
O=C(O)Cc1cc(O)ccc1O [Homogentisic acid],0.60,-0.05,0.23,0.79,-0.05,0.24,0.10,0.75,0.68,-0.76,-0.18,0.0612,,,,,,,,,
Oc1cc(O)c2c(c1)O[C@H](c1ccc(O)c(O)c1)[C@H](O)[C@H]2c1c(O)cc(O)c2c1O[C@H](c1ccc(O)c(O)c1)[C@H](O)C2 [Procyanidin B2],,,,,,,,,,,,,0.172 ng·h/mL,0.687 ng/mL,60 min,2.06 ng·h/mL,4.64 ng/mL,15 min,,,"AUClast ([2]; rat plasma, oral maoto 1 g/kg): BQL; Cmax ([2]; rat plasma, oral maoto 1 g/kg): BQL"
Oc1cc(O)c2c(c1)O[C@H](c1ccc(O)c(O)c1)[C@H](O)[C@H]2c1c(O)cc(O)c2c1O[C@H](c1ccc(O)c(O)c1)[C@H](O)[C@H]2c1c(O)cc(O)c2c1O[C@H](c1ccc(O)c(O)c1)[C@H](O)C2 [Procyanidin C1],,,,,,,,,,,,,,,,1.69 ng·h/mL,3.9 ng/mL,15 min,,,"detection in rat plasma by targeted LC-MS/MS ([2]; oral maoto 2 g/kg): not detected; AUClast ([2]; rat plasma, oral maoto 1 g/kg): BQL; Cmax ([2]; rat plasma, oral maoto 1 g/kg): BQL; AUClast ([2]; rat plasma, oral maoto 2 g/kg): BQL; Cmax ([2]; rat plasma, oral maoto 2 g/kg): BQL"
N#C[C@H](O[C@@H]1O[C@H](CO)[C@@H](O)[C@H](O)[C@H]1O)c1ccccc1 [Prunasin],,,,,,,,,,,,,11900 ng·h/mL,2240 ng/mL,30 min,32000 ng·h/mL,3250 ng/mL,120 min,5520 ng·h/mL,2020 ng/mL,"half-life [2, 11]: 53.5 min; Tmax [2, 11]: 30 min; half-life [2, 7]: 147 min; half-life [2, 9]: 193 min"
O=C[C@H](O)[C@H](O)[C@H](O)CO [Ribose],0.41,0.05,-0.22,0.16,1.05,0.63,-0.22,-0.34,-1.38,-0.72,-0.21,0.2160,,,,,,,,,
O=C(CO)C(O)C(O)CO (stereo not drawn) [Ribulose],0.30,0.01,0.06,0.08,0.24,0.14,0.10,-0.04,-0.26,-0.26,0.02,0.0374,,,,,,,,,
COc1cc2ccc(=O)oc2cc1O [Scopoletin],,,,,,,,,,,,,0.428 ng·h/mL,0.425 ng/mL,15 min,0.591 ng·h/mL,0.237 ng/mL,15 min,0.07 ng·h/mL,0.216 ng/mL,"Tmax [2, 11]: 15 min; half-life [2, 7]: 143 min; half-life [2, 9]: 326 min"
NC(N)=O [Urea],0.05,-0.01,-0.09,-0.07,-0.01,0.02,-0.05,0.03,-0.02,-0.03,-0.13,0.0096,,,,,,,,,
"CN[C@@H](C)[C@@H](O)c1ccccc1 [d-Pseudoephedrine, d-pseudoephedrine]",,,,,,,,,,,,,559 ng·h/mL,163 ng/mL,15 min,1180 ng·h/mL,253 ng/mL,15 min,183 ng·h/mL,136 ng/mL,"half-life [2, 11]: 349 min; Tmax [2, 11]: 15 min; half-life [2, 7]: 395 min; half-life [2, 9]: 232 min"
"CN[C@@H](C)[C@H](O)c1ccccc1 [l-Ephedrine, l-ephedrine]",,,,,,,,,,,,,1560 ng·h/mL,377 ng/mL,60 min,2850 ng·h/mL,545 ng/mL,15 min,730 ng·h/mL,311 ng/mL,"half-life [2, 11]: 81 min; Tmax [2, 11]: 15 min; half-life [2, 7]: 86.4 min; half-life [2, 9]: 251 min"
